Measurements: patent EP4491625A1, “BENZO BICYCLIC COMPOUND, AND PREPARATION METHOD AND APPLICATION THEREOF” (Guangzhou Unirise Pharmaceutical Co., Ltd., priority 2022, dated 2023)
Counter-ions that a name gives are not always drawn. Blank lines part the entries; values can stand above or below the compound they belong to.

Experiments:
GLP-1 receptor = biological target: T1, GLP-1 receptor (Homo sapiens, UniProt P43220); assay: cAMP detection assay of agonistic effect in HEK293 cells with high expression of hGLP-1R; format: cell-based; conditions: agonistic effect, cAMP, HEK293 cells with high expression of hGLP-1R; read-out: EC50
T1 construct: host or cells: HEK293
Method: The cells were constructed by Wuxi New Drug Development Co., Ltd. Shanghai.
The compound was prepared with DMSO to a working concentration of 100µM or 10µM. 10 points of 4-fold dilution (maximum concentration of 1000nM or 100nM after dilution) was done with Bravo V11.
The compound to be tested was diluted 4 times with Bravo to obtain 10 concentrations and the initial concentration was 100µM by Bravo V11. The initial concentration was 100µM.

[1] = Human liver microsome stability test; format: in vitro ADME; conditions: pH 7.4; human liver microsomes 0.5 mg/mL, 1 µM compound, NADPH, 37 °C
Method: Preparation of compound working solutions: A high-concentration stock solution of the subject and control drug verapamil powder was prepared in DMSO and diluted to a working solution of 100 µM with DMSO before use, with a final concentration of 1 µM of the subject and verapamil.
Preparation of phosphate buffer salt (100 mM, pH 7.4): 7.098 g of disodium hydrogen phosphate was weighed and dissolved ultrasonically in 500 mL of purified water as solution A. 3.400 g of potassium dihydrogen phosphate was weighed and dissolved ultrasonically in 250 mL of purified water as solution B. Solution B was added to the inside of solution A to give a pH of 7.4.
Preparation of 10 mM NADPH: An appropriate amount of NADPH is now weighed before the experiment and a working solution of 10 mM concentration is prepared from phosphate solution.
Preparation of the incubation system: The incubation system was prepared according to the following table, and the incubation system was preheated in a water bath at 37 °C for 10 minutes before use.
Transfer 25 µL of NADPH or phosphate buffer salt to the above incubation system and add 2.5 µL of 100 µM subject or verapamil. For NADPH-added samples, double-parallel preparations were performed; for NADPH-negative samples, single-parallel preparations were performed.
30 µL of the suspension was taken at 0.5, 5, 15, 30, and 60 min, respectively. The reaction was terminated by adding 150 µL of acetonitrile containing the internal standard and vortexed for 10 min.
This was followed by centrifugation at 3220 g for 40 min for protein precipitation. 100 µL of supernatant was transferred to the injection plate and mixed with 100 µL of pure water for UPLC-MS/MS analysis.
All data calculations were performed by Microsoft Excel software. Peak areas were detected by extracted ion mapping. The in vitro half-life (t1/2) of the parent drug was assayed by fitting the natural logarithm of the percentage elimination of the parent drug linearly with time.
The in vitro half-life (t1/2) was calculated by slope: t1/2 = 0.693 / k
The in vitro clearance (in µL/min/mg) was calculated using the following formula: CLint =0.693/ t1/2 * (Incubation system volume (μL) / protein content (mg)) [formula]
Table 3 the experimental results of human liver microsome of the compounds provided in some examples of the present invention

[2] = Pharmacokinetic study in rats (intravenous or gavage, plasma LC-MS/MS); format: in vivo; conditions: SD rats; for F: po 5 mg/kg versus iv 1 mg/kg; for AUC(0-t) / Cmax / Tmax / half-life: rat, plasma
Method: SD rats: male, 6-8 weeks old, weighing 200-300 g, purchased from SPF ( Beijing ) Biotechnology Co.,Ltd..
At each PK sampling point, 200 µL of whole blood was collected into EDTA-K2 anticoagulant blood tubes and centrifuged at 4°C for 30 min to obtain plasma. Whole blood samples were placed on wet ice before centrifugation. All collected plasma samples were stored on dry ice or frozen until analyzed.
Approximately1 mg of the compound of the present application was weighed and dissolved in DMSO, vortexed and sonicated to obtain a 1 mg/mL standard stock solution. The standard stock solution was diluted with 50% aqueous acetonitrile to obtain standard working solutions with concentrations of 5, 10, 20, 50, 100, 500, 1000, 5000 and 10000 ng/mL. QC working solutions with concentrations of 10, 20, 500 and 8000 ng/mL were prepared using the same dilution method. These QC samples were prepared on the day of analysis in the same way as the standard curve samples.5 µL of standard working solution with concentrations of (5, 10, 20, 50, 100, 500, 1000, 5000 and 10000 ng/mL) was added to 50 µL of blank SD rat plasma to obtain a total volume of 55 µL with concentrations of 0.5-1000 ng/mL (0.5, 1, 2, 5, 10, 50, 100, 500, and 1000 ng/mL) of standard curve samples. QC samples with concentrations of (1 ng/ml (low-1) and 2 ng/ml (low-2), 50 ng/ml (medium), 800 ng/ml (high)) were configured separately.
55 µL of standard samples, 55 µL of QC samples or 55 µL of unknown samples (50 µL of plasma samples added to 5 µL of 50% aqueous acetonitrile) were added to 200 µL of acetonitrile containing an internal standard (dexamethasone) to precipitate proteins. […] The supernatant was taken and diluted 3-fold with water, and 5 µL of the supernatant dilution was injected into the LC-MS/MS system for quantitative analysis under the following assay conditions:
Column: HALO 90A Phenly-Hexyl, 2µm 2.1×30mm.
Pharmacokinetic parameters were calculated by the […] of Phoenix TM Winnonlin® 8.3 software.

T1 sequence (P43220 24-463): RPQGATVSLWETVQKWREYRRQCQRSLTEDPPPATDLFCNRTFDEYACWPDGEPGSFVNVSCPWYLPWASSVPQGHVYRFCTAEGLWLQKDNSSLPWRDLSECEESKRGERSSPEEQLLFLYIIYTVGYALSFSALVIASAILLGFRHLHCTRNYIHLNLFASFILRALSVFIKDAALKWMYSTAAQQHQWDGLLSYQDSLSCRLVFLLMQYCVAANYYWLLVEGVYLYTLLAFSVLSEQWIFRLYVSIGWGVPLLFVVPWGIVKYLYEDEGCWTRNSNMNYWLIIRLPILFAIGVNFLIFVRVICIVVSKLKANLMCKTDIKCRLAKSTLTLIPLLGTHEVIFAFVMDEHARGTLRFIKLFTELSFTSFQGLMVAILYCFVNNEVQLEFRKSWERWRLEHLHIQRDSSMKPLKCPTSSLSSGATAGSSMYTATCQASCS

EC50 (GLP-1 receptor): 0.26 nM
half-life at 1 µM [1]: 1.84 h
SMILES: O=C(O)c1ccc2nc(CC3CC=C(c4ncc(F)c(OCc5ccc(Cl)c6ccoc56)n4)CC3)n(C[C@@H]3CCO3)c2c1 (stereo partly drawn) [Compound 3, 2-((4-(4-((4-chlorobenzofuran-7-yl)methoxy)-5-fluoropyrimidin-2-yl)cyclohex-3-en-1-yl)methyl)-1-(((S)-oxetan-2-yl)methyl)-1H-benzo[d]imidazole-6-carboxylic acid]

half-life at 1 µM [1]: > 3.08 h
SMILES: O=C(O)c1ccc2nc(CC3CC=C(c4ncc(F)c(OCc5ccc(Cl)c6cc(F)oc56)n4)CC3)n(C[C@@H]3CCO3)c2n1 (stereo partly drawn) [Compound 5, 2-((4-(4-((4-chloro-2-fluorobenzofuran-7-yl)methoxy)-5-fluoropyrimidin-2-yl)cyclohex-3-en-1-yl)methyl)-3-(((S)-oxetan-2-yl)methyl)-3H-imidazo[4,5-b]pyridine-5-carboxylic acid]

half-life at 1 µM [1]: 1.86 h
SMILES: O=C(O)c1ccc2nc(CC3CC=C(c4cccc(OCc5ccc(Cl)c6cc(F)oc56)n4)CC3)n(C[C@@H]3CCO3)c2n1 (stereo partly drawn) [Compound 6, 2-((4-(6-((4-chloro-2-fluorobenzofuran-7-yl)methoxy)pyridin-2-yl)cyclohex-3-en-1-yl)methyl)-3-(((S)-oxetan-2-yl)methyl)-3H-imidazo[4,5-b]pyridine-5-carboxylic acid]

EC50 (GLP-1 receptor): 0.22 nM
SMILES: O=C(O)c1ccc2nc(CC3CCC(c4cccc(OCc5ccc(Cl)c6cc(F)oc56)n4)CC3)n(C[C@@H]3CCO3)c2c1 (stereo partly drawn) [Compound 7, (5)-2-((4-(6-((4-chloro-2-fluorobenzofuran-7-yl)methoxy)pyridin-2-yl)cyclohexyl)methyl)-1-(oxetan-2-ylmethyl)-1H-benzo[d]imidazole-6-carboxylic acid]

half-life at 1 µM [1]: 3 h
SMILES: O=C(O)c1cc2c(nc(CC3CC=C(c4cccc(OCc5ccc(Cl)c6cc(F)oc56)n4)CC3)n2C[C@@H]2CCO2)s1 (stereo partly drawn) [Compound 8, 2-((4-(6-((4-chloro-2-fluorobenzofuran-7-yl)methoxy)pyridin-2-yl)cyclohex-3-en-1-yl)methyl)-1-(((S)-oxetan-2-yl)methyl)-1H-thieno[2,3-d]imidazole-5-carboxylic acid]

F [2]: 38.8%
AUC(0-t) ([2]; male, iv, 1 mg/kg): 1250 ng·h/mL
Cmax ([2]; male, iv, 1 mg/kg): 1080 ng/mL
Tmax ([2]; male, iv, 1 mg/kg): 0.083 h
half-life ([2]; male, iv, 1 mg/kg): 2.57 h
AUC(0-t) ([2]; male, po, 5 mg/kg): 2440 ng·h/mL
Cmax ([2]; male, po, 5 mg/kg): 460 ng/mL
Tmax ([2]; male, po, 5 mg/kg): 4 h
half-life ([2]; male, po, 5 mg/kg): 5.29 h
SMILES: O=C(O)c1ccc2nc(CC3CC=C(c4cccc(OCc5ccc(Cl)c6cc(Cl)oc56)n4)CC3)n(C[C@@H]3CCO3)c2c1 (stereo partly drawn) [Compound 25, 2-((4-(6-((2,4-dichlorobenzofuran-7-yl)methoxy)pyridin-2-yl)cyclohex-3-en-1-yl)methyl)-1-(((S)-oxetan-2-yl)methyl)-1H-benzo[d]imidazole-6-carboxylic acid]

EC50 (GLP-1 receptor): 0.07 nM
half-life at 1 µM [1]: > 3.08 h
SMILES: N#CCC1(Cn2c(CC3CC=C(c4cccc(OCc5ccc(Cl)c6cc(F)oc56)n4)CC3)nc3ccc(C(=O)O)cc32)CC1 (stereo not drawn) [Compound 28, 2-((4-(6-((4-chloro-2-fluorobenzofuran-7-yl)methoxy)pyridin-2-yl)cyclohex-3-en-1-yl)methyl)-1-((1-(cyanomethyl)cyclopropyl)methyl)-1H-benzo[d]imidazole-6-carboxylic acid]

EC50 (GLP-1 receptor): 0.22 nM
SMILES: CCn1cncc1Cn1c(CC2CC=C(c3cccc(OCc4ccc(Cl)c5cc(F)oc45)n3)CC2)nc2ccc(C(=O)O)cc21 (stereo not drawn) [Compound 29, 2-((4-(6-((4-chloro-2-fluorobenzofuran-7-yl)methoxy)pyridin-2-yl)cyclohex-3-en-1-yl)methyl)-1-((1-ethyl-1H-imidazol-5-yl)methyl)-1H-benzo[d]imidazole-6-carboxylic acid hydrochloride]

EC50 (GLP-1 receptor): 0.19 nM
half-life at 1 µM [1]: 2.77 h
SMILES: O=C(O)c1ccc2nc(CC3CC=C(c4ncc(F)c(OCc5ccc(Cl)c6cc(F)oc56)n4)CC3)n(C[C@@H]3CCO3)c2c1 (stereo partly drawn) [Compound 31]

EC50 (GLP-1 receptor): 0.2 nM
SMILES: O=C(O)c1ccc2nc(CC3CC=C(c4cccc(OCc5ccc(Cl)c6ccoc56)n4)CC3)n(C[C@@H]3CCO3)c2n1 (stereo partly drawn) [Compound 34, 2-((4-(6-((4-chlorobenzofuran-7-yl)methoxy)pyridin-2-yl)cyclohex-3-en-1-yl)methyl)-3-(((S)-oxetan-2-yl)methyl)-3H-imidazo[4,5-b]pyridine-5-carboxylic acid]

EC50 (GLP-1 receptor): 0.22 nM
SMILES: O=C(O)c1ccc2nc(C[C@H]3CC=C(c4cccc(OCc5ccc(Cl)c6cc(F)oc56)n4)CC3)n(C[C@@H]3CCO3)c2c1 [Compound 36B, 2-(((R)-4-(6-((4-chloro-2-fluorobenzofuran-7-yl)methoxy)pyridin-2-yl)cyclohex-3-en-1-yl)methyl)-1-(((S)-oxetan-2-yl)methyl)-1H-benzo[d]imidazole-6-carboxylic acid]

SMILES: O=C(O)c1ccc2nc(C[C@H]3CC[C@H](c4cccc(OCc5ccc(Cl)c6cc(Cl)oc56)n4)CC3)n(C[C@@H]3CCO3)c2c1 [Compound 38B, 2-(((1r,4S)-4-(6-((2,4-dichlorobenzofuran-7-yl)methoxy)pyridin-2-yl)cyclohexyl)methyl)-1-(((S)-oxetan-2-yl)methyl)-1H-benzo[d]imidazole-6-carboxylic acid]
F [2]: 21.1%
AUC(0-t) ([2]; iv, 1 mg/kg): 3940 ng·h/mL
Cmax ([2]; iv, 1 mg/kg): 5280 ng/mL
Tmax ([2]; iv, 1 mg/kg): 0.083 h
half-life ([2]; iv, 1 mg/kg): 1.45 h
AUC(0-t) ([2]; po, 5 mg/kg): 4130 ng·h/mL
Cmax ([2]; po, 5 mg/kg): 1400 ng/mL
Tmax ([2]; po, 5 mg/kg): 1.17 h
half-life ([2]; po, 5 mg/kg): 2.62 h

EC50 (GLP-1 receptor): 0.15 nM
SMILES: O=C(O)c1cc(F)c2nc(C[C@H]3CC[C@H](c4cccc(OCc5ccc(Cl)c6cc(F)oc56)n4)CC3)n(C[C@@H]3CCO3)c2c1 [Compound 39, 2-(((1r,4S)-4-(6-((4-chloro-2-fluorobenzofuran-7-yl)methoxy)pyridin-2-yl)cyclohexyl)methyl)-4-fluoro-1-(((S)-oxetan-2-yl)methyl)-1H-benzo[d]imidazole-6-carboxylic acid]

EC50 (GLP-1 receptor): 0.2 nM
SMILES: N#CCC1(Cn2c(C[C@H]3CC[C@H](c4cccc(OCc5ccc(Cl)c6cc(F)oc56)n4)CC3)nc3ccc(C(=O)O)cc32)CC1 [Compound 43, 2-(((1r,4r)-4-(6-((4-chloro-2-fluorobenzofuran-7-yl)methoxy)pyridin-2-yl)cyclohexyl)methyl)-1-((1-(cyanomethyl)cyclopropyl)methyl)-1H-benzo[d]imidazole-6-carboxylic acid]
